The test system of one data set is HBV. The data set is described as follows: Determination of HBV DNA from the supernatants of HepAD38 cells (anti-HBV activity). Format: cell-based, hepatitis B virus. Particulars: Hepatitis B virus, HePAD38, 144 h, HBV DNA in HepAD38 supernatant, day 6, qPCR; read-out: Cell Activity. Summed up:
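EC50 derived by non-linear regression of relative HBV DNA copy numbers, measured by qPCR (plasmid standards) in day-6 filtered supernatants. Before this, HepAD38 cells were exposed to serial half-log compound dilutions without tetracycline, releasing viral expression; cultures kept at 37 °C, 5% CO2.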
In general terms: Quantitative PCR measures a nucleic acid by following its amplification.

Data set [1] can be described thus: Cell viability assay (AlamarBlue). Particulars: human, HepAD38 cells. A general note: Resazurin is reduced to fluorescent resorufin, in cell work by metabolically active cells.
Data set [2] deals with HBV core protein (C-terminal truncated core protein containing 149 amino acids of the N-terminal assembly domain) (UniProt P03146). As to the kind of experiment: Biochemical capsid assembly assay (fluorescence quenching). Set-up: rows headed: Assembly Activity; other: BODIPY-FL labelled core protein, assembly started with NaCl, read after 6 min. The note with it: read-out: Assembly Activity; BODIPY-FL labelled core protein, assembly started with NaCl, read after 6 min. The method, boiled down:
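N-terminal assembly domain (residues 1–149) plus C-terminal Cys150, E. coli-expressed, BODIPY-FL-maleimide labelled, used at 1.0–2.0 μM in 50 mM HEPES pH 7.5 with 0.5% DMSO. Assembly started with NaCl ([…]); fluorescence quenching (ex 477/em 525 nm) read after 6 min. 8-point compound series; EC50 by non-linear regression.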

By CC50 is commonly meant the concentration that lowers cell viability or growth by half. The low end stands for greater toxicity to the cells, the high end for lower toxicity to the cells.

HBV core protein (C-terminal truncated core protein containing 149 amino acids of the N-terminal assembly domain), sequence (P03146 whole entry, the tested form may be a part): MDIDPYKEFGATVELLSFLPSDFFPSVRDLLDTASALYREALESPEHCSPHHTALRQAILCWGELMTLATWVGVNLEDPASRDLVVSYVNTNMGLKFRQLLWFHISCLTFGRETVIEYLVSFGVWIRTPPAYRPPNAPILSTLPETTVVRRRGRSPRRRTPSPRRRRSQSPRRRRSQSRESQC

As to `CN(C(=O)c1cnn2c1CN(C(=O)c1cc3ccccc3[nH]1)CC2)C1CCC1` [Example 133, N-cyclobutyl-5-(1H-indole-2-carbonyl)-N-methyl-4H,5H,6H,7H-pyrazolo[1,5-a]pyrazine-3-carboxamide], the EC50 in the data set with HBV lay in the range of 1 to 10 µM. In data set [1], the half-maximal cytotoxic concentration (CC50) at 6 days was over 10 µM. The IC50 in data set [2] was under 5 µM.
For `CC1Cn2ncc(C(=O)N[C@H](C)C(F)(F)F)c2CN1C(=O)c1cc2ccccc2[nH]1` (stereo partly drawn) [Example 142, 5-(1H-indole-2-carbonyl)-6-methyl-N-[(2R)-1,1,1-trifluoropropan-2-yl]-4H,5H,6H,7H-pyrazolo[1,5-a]pyrazine-3-carboxamide], in that order: under 1 µM, over 10 µM and under 5 µM.
On to `O=C(c1cc2ccccc2[nH]1)N1CCn2ncc(S(=O)(=O)NCCO)c2C1` [Example 29, N-(2-hydroxyethyl)-5-(1H-indole-2-carbonyl)-4H,5H,6H,7H-pyrazolo[1,5-a]pyrazine-3-sulfonamide], for which, in the data set on HBV, the EC50 was under 1 µM. This molecule also showed a CC50 at 6 days in data set [1] of over 10 µM. Moreover, in data set [2], the IC50 is under 5 µM.
For `CN(CCO)C(=O)c1cnn2c1CN(C(=O)c1cc3c(Cl)cccc3[nH]1)CC2` [Example 52, 5-(4-chloro-1H-indole-2-carbonyl)-N-(2-hydroxyethyl)-N-methyl-4H,5H,6H,7H-pyrazolo[1,5-a]pyrazine-3-carboxamide], in that order: under 1 µM, over 10 µM and under 5 µM.
On to `CC1Cn2ncc(C(=O)NC3(COC(F)F)CC3)c2CN1C(=O)c1cc2cc(F)c(Cl)cc2[nH]1` (stereo not drawn) [Example 93, 5-(6-chloro-5-fluoro-1H-indole-2-carbonyl)-N-{1-[(difluoromethoxy)methyl]cyclopropyl}-6-methyl-4H,5H,6H,7H-pyrazolo[1,5-a]pyrazine-3-carboxamide], for which the EC50 in the data set with HBV is under 1 µM. This molecule had a CC50 at 6 days in data set [1] of over 10 µM. The IC50 in data set [2] is under 5 µM.
With `CN(C(=O)c1cnn2c1CN(C(=O)c1cc3ccccc3[nH]1)CC2)C1(c2ccc(CO)cc2)CC1` [Example 91, N-{1-[4-(hydroxymethyl)phenyl]cyclopropyl}-5-(1H-indole-2-carbonyl)-N-methyl-4H,5H,6H,7H-pyrazolo[1,5-a]pyrazine-3-carboxamide], in the data set on HBV, the EC50 was under 1 µM. This molecule also displayed a CC50 at 6 days in data set [1] of over 10 µM. The IC50 in data set [2] is under 5 µM.
For `O=C(c1cc2cc(Cl)c(F)cc2[nH]1)N1CCn2ncc(C(=O)N3CCCOCC34CC4)c2C1` [Example 111, 4-[5-(5-chloro-6-fluoro-1H-indole-2-carbonyl)-4H,5H,6H,7H-pyrazolo[1,5-a]pyrazine-3-carbonyl]-8-oxa-4-azaspiro[2.6]nonane], in that order: under 1 µM, over 10 µM and under 5 µM.
For `CC1Cn2ncc(C(=O)N(C)C3CC3)c2CN1C(=O)c1cc2ccccc2[nH]1` (racemic) [Example 2, N-cyclopropyl-5-(1H-indole-2-carbonyl)-N,6-dimethyl-4H,5H,6H,7H-pyrazolo[1,5-a]pyrazine-3-carboxamide], the EC50 with HBV was under 1 µM. The molecule also came in with a half-maximal cytotoxic concentration (CC50) at 6 days in data set [1] of over 10 µM. Besides, in data set [2], the IC50 is under 5 µM.
Take `COCC1(NC(=O)c2cnn3c2CN(C(=O)c2cc4ccccc4[nH]2)CC3)CC1` [Example 50, 5-(1H-indole-2-carbonyl)-N-[1-(methoxymethyl)cyclopropyl]-4H,5H,6H,7H-pyrazolo[1,5-a]pyrazine-3-carboxamide]: the EC50 with HBV is under 1 µM. Besides, the CC50 at 6 days in data set [1] is over 10 µM. For the same molecule, the IC50 in data set [2] is under 5 µM.
As to `O=C(NC1(CCOC(F)F)CCOCC1)c1cnn2c1CN(C(=O)c1cc3ccccc3[nH]1)CC2` [Example 125, N-{4-[2-(difluoromethoxy)ethyl]oxan-4-yl}-5-(1H-indole-2-carbonyl)-4H,5H,6H,7H-pyrazolo[1,5-a]pyrazine-3-carboxamide], the EC50 with HBV is under 1 µM. For the same molecule, the cytotoxic concentration (CC50) at 6 days in data set [1] is over 10 µM. Moreover, in data set [2], the IC50 is under 5 µM.
Regarding `C[C@@H](NC(=O)c1cnn2c1CN(C(=O)c1cc3c(F)c(F)ccc3[nH]1)CC2)C(F)(F)F` [Example 114, 5-(4,5-difluoro-1H-indole-2-carbonyl)-N-[(2R)-1,1,1-trifluoropropan-2-yl]-4H,5H,6H,7H-pyrazolo[1,5-a]pyrazine-3-carboxamide], the EC50 in the data set with HBV was under 1 µM. In data set [1], the CC50 at 6 days is over 10 µM. The IC50 in data set [2] was under 5 µM.
For `COCC1(N(C)C(=O)c2cnn3c2CN(C(=O)c2cc4ccccc4[nH]2)C(C)C3)CC1` (single isomer, unassigned) [Example 17, 5-(1H-indole-2-carbonyl)-N-[1-(methoxymethyl)cyclopropyl]-N,6-dimethyl-4H,5H,6H,7H-pyrazolo[1,5-a]pyrazine-3-carboxamide], in that order: under 1 µM, over 10 µM and 5 to 10 µM.
For `CC1Cn2ncc(C(=O)N(C)C3(COC(F)F)CC3)c2CN1C(=O)c1cc2ccccc2[nH]1` (stereo not drawn) [Example 20, N-{1-[(difluoromethoxy)methyl]cyclopropyl}-5-(1H-indole-2-carbonyl)-N,6-dimethyl-4H,5H,6H,7H-pyrazolo[1,5-a]pyrazine-3-carboxamide], in that order: under 1 µM, over 10 µM and under 5 µM.
In the case of `COCC1(N(C)C(=O)c2cnn3c2CN(C(=O)c2cc4ccccc4[nH]2)C(C)C3)CC1` (stereo not drawn) [Example 1, 5-(1H-indole-2-carbonyl)-N-[1-(methoxymethyl)cyclopropyl]-N,6-dimethyl-4H,5H,6H,7H-pyrazolo[1,5-a]pyrazine-3-carboxamide], the EC50 with HBV is under 1 µM. The molecule also displayed a CC50 at 6 days in data set [1] of over 10 µM. The IC50 in data set [2] was under 5 µM.
For `CN(CC1(O)CCC1)C(=O)c1cnn2c1CN(C(=O)c1cc3ccccc3[nH]1)CC2` [Example 137, N-[(1-hydroxycyclobutyl)methyl]-5-(1H-indole-2-carbonyl)-N-methyl-4H,5H,6H,7H-pyrazolo[1,5-a]pyrazine-3-carboxamide], in that order: under 1 µM, over 10 µM and under 5 µM.
Regarding `O=C(c1cc2ccccc2[nH]1)N1CCn2ncc(C(=O)N3CCCOCC34CC4)c2C1` [Example 67, 4-[5-(1H-indole-2-carbonyl)-4H,5H,6H,7H-pyrazolo[1,5-a]pyrazine-3-carbonyl]-8-oxa-4-azaspiro[2.6]nonane], the EC50 with HBV is under 1 µM. In addition, the 50% cytotoxic concentration (CC50) at 6 days in data set [1] is over 10 µM. The IC50 in data set [2] is under 5 µM.
In the case of `O=C(c1cc2ccccc2[nH]1)N1CCn2ncc(C(=O)N3CC4CC4C3)c2C1` (stereo not drawn) [Example 43, 2-(3-{3-azabicyclo[3.1.0]hexane-3-carbonyl}-4H,5H,6H,7H-pyrazolo[1,5-a]pyrazine-5-carbonyl)-1H-indole], the EC50 in the data set with HBV is under 100 µM. Moreover, in data set [1], the CC50 at 6 days was over 10 µM. In data set [2], the IC50 is under 5 µM.
For `Cc1c(F)ccc2[nH]c(C(=O)N3CCn4ncc(C(=O)NC5(COC(F)F)CC5)c4C3)cc12` [Example 103, N-{1-[(difluoromethoxy)methyl]cyclopropyl}-5-(5-fluoro-4-methyl-1H-indole-2-carbonyl)-4H,5H,6H,7H-pyrazolo[1,5-a]pyrazine-3-carboxamide], the EC50 with HBV is under 1 µM. In addition, the half-maximal cytotoxic concentration (CC50) at 6 days in data set [1] is over 10 µM. Besides, the IC50 in data set [2] is under 5 µM.
`CN(C(=O)c1cnn2c1CN(C(=O)c1cc3cc(F)c(Cl)cc3[nH]1)CC2)C1(COC(F)F)CC1` [Example 23, 5-(6-chloro-5-fluoro-1H-indole-2-carbonyl)-N-{1-[(difluoromethoxy)methyl]cyclopropyl}-N-methyl-4H,5H,6H,7H-pyrazolo[1,5-a]pyrazine-3-carboxamide]: the EC50 in the data set with HBV is under 1 µM. For the same molecule, the cytotoxic concentration (CC50) at 6 days in data set [1] was over 10 µM. In data set [2], the IC50 is under 5 µM.
Take `O=C(NC1(COC(F)F)CC1)c1cnn2c1CN(C(=O)c1cc3c(Cl)cccc3[nH]1)CC2` [Example 105, 5-(4-chloro-1H-indole-2-carbonyl)-N-{1-[(difluoromethoxy)methyl]cyclopropyl}-4H,5H,6H,7H-pyrazolo[1,5-a]pyrazine-3-carboxamide]: the EC50 in the data set on HBV was under 1 µM. The molecule also came in with a CC50 at 6 days in data set [1] of over 10 µM. Besides, in data set [2], the IC50 is under 5 µM.
For `CN(CCO)C(=O)c1cnn2c1CN(C(=O)c1cc3ccccc3[nH]1)CC2` [Example 77, N-(2-hydroxyethyl)-5-(1H-indole-2-carbonyl)-N-methyl-4H,5H,6H,7H-pyrazolo[1,5-a]pyrazine-3-carboxamide], in that order: under 1 µM, over 10 µM and under 5 µM.
As for `CN(C(=O)c1cnn2c1CN(C(=O)c1cc3ccccc3[nH]1)CC2)C1CC1` [Example 74, N-cyclopropyl-5-(1H-indole-2-carbonyl)-N-methyl-4H,5H,6H,7H-pyrazolo[1,5-a]pyrazine-3-carboxamide], in the data set with HBV, the EC50 is under 1 µM. Besides, the 50% cytotoxic concentration (CC50) at 6 days in data set [1] is over 10 µM. Also, the IC50 in data set [2] is under 5 µM.
Consider `O=C(NC1(C(F)(F)F)CCC1)c1cnn2c1CN(C(=O)c1cc3ccccc3[nH]1)CC2` [Example 106, 5-(1H-indole-2-carbonyl)-N-[1-(trifluoromethyl)cyclobutyl]-4H,5H,6H,7H-pyrazolo[1,5-a]pyrazine-3-carboxamide], for which the EC50 in the data set on HBV is under 1 µM. This molecule displayed a CC50 at 6 days in data set [1] of over 10 µM. Moreover, the IC50 in data set [2] is under 5 µM.

These data come from US20220363686A1 (AiCuris GmbH & Co. KG, priority 2018, published 2022).
